≈ marks a conversion by molar mass, not a printed value.
Legend:
Assay in all cases: Bacterial growth minimal inhibitory concentration (microdilution, cation-adjusted Mueller-Hinton Broth)
Assay type in all cases: cell-based
[1] = system: K. pneumoniae A-651; settings: multiply-resistant strain (in particular quinolone-resistant); for MIC: Klebsiella pneumoniae, A651, read-out: MIC for K. Pneumoniae A-651
Method: (§1) Minimal Inhibitory Concentrations (MICs; mg/L) were determined in cation-adjusted Mueller-Hinton Broth by a microdilution method following the description given in “Methods for Dilution Antimicrobial Susceptibility Tests for Bacteria that Grow Aerobically”, Approved standard, 7th ed., a Clinical and Laboratory Standards Institute (CLSI) Document M7-A7, Wayne, Pa., USA (2006).
(§2) All Example compounds were tested against several Gram-positive and Gram-negative bacteria. […] K. pneumoniae A-651 is a multiply-resistant strain (in particular quinolone-resistant), while E. coli ATCC25922 and P. aeruginosa ATCC27853 are quinolone-sensitive strains.

[2] = system: P. aeruginosa ATCC27853; settings: for MIC: Pseudomonas aeruginosa, ATCC27853, quinolone-sensitive strain, read-out: MIC for P. aeruginosa ATCC27853
Method: as §1, §2

[3] = system: E. coli ATCC25922; settings: quinolone-sensitive strain; for MIC: Escherichia coli, ATCC25922, read-out: MIC for E. coli ATCC25922
Method: as §1, §2

Which MIC [1] does the source give for `C[C@@](CCN1Cc2cc(C#CC#CC(CO)C3CCC3)cn2C1=O)(C(=O)NO)S(C)(=O)=O` (mixture of isomers) [Example 60, (2R)-4-(6-((5RS)-5-cyclobutyl-6-hydroxyhexa-1,3-diyn-1-yl)-3-oxo-1H-pyrrolo[1,2-c]imidazol-2(3H)-yl)-N-hydroxy-2-methyl-2-(methylsulfonyl)butanamide] here?
The MIC was 1 µg/mL.

And the MIC [2]?
The MIC was 4 µg/mL.

What about the MIC [3] of the same compound?
The MIC was 0.5 µg/mL.

Which results are given for `CC(CCN1Cc2cc(-c3ccc(C4(O)COC4)cc3)cn2C1=O)(C(=O)NO)S(C)(=O)=O` (racemic) [RE1, (RS)—N-hydroxy-4-(6-(4-(3-hydroxyoxetan-3-yl)phenyl)-3-oxo-1H-pyrrolo[1,2-c]imidazol-2(3H)-yl)-2-methyl-2-(methylsulfonyl)butanamide]?
MIC [1]: 16 µg/mL (≈ 34.5 µM); MIC [2]: 16 µg/mL (≈ 34.5 µM); MIC [3]: 8 µg/mL (≈ 17.3 µM)

`CCOC(C)(C)c1ccc(C#Cc2cc3n(c2)C(=O)N(CCC(C)(C(=O)NO)S(C)(=O)=O)C3)cc1` (racemic) [RE2, (RS)-4-(6-((4-(2-ethoxypropan-2-yl)phenyl)ethynyl)-3-oxo-1H-pyrrolo[1,2-c]imidazol-2(3H)-yl)-N-hydroxy-2-methyl-2-(methylsulfonyl)butanamide] was tested. Which MIC [1] did it give?
The MIC was 2 µg/mL (≈ 3.99 µM).

What about the MIC [2] of the same compound?
Its MIC is 8 µg/mL (≈ 15.9 µM).

And the MIC [3]?
The MIC was 2 µg/mL (≈ 3.99 µM).

What does the source list for `CC(CCN1Cc2cc(C#Cc3ccc(CO)cc3F)cn2C1=O)(C(=O)NO)S(C)(=O)=O` (racemic) [RE3, (RS)-4-(6-((2-fluoro-4-(hydroxymethyl)phenyl)ethynyl)-3-oxo-1H-pyrrolo[1,2-c]imidazol-2(3H)-yl)-N-hydroxy-2-methyl-2-(methylsulfonyl)butanamide]?
MIC [1]: 1 µg/mL (≈ 2.16 µM); MIC [2]: 4 µg/mL (≈ 8.63 µM); MIC [3]: 0.5 µg/mL (≈ 1.08 µM)

For `CC(C)(O)C#Cc1ccc(-c2cc3n(c2)C(=O)N(CCC(C)(C(=O)NO)S(C)(=O)=O)C3)cc1` (racemic) [RE4, (RS)—N-hydroxy-4-(6-(4-(3-hydroxy-3-methylbut-1-yn-1-yl)phenyl)-3-oxo-1H-pyrrolo[1,2-c]imidazol-2(3H)-yl)-2-methyl-2-(methylsulfonyl)butanamide], which MIC [1] is on record?
The MIC was 0.5 µg/mL (≈ 1.06 µM).

What about the MIC [2] of the same compound?
The MIC was 2 µg/mL (≈ 4.22 µM).

What about the MIC [3] of the same compound?
The MIC was 0.25 µg/mL (≈ 0.528 µM).

Which results are given for `CC(C)(O)C#CC#Cc1cc2n(c1)C(=O)N(CCC(C)(C(=O)NO)S(C)(=O)=O)C2` (racemic) [RE5, (RS)—N-hydroxy-4-(6-(5-hydroxy-5-methylhexa-1,3-diyn-1-yl)-3-oxo-1H-pyrrolo[1,2-c]imidazol-2(3H)-yl)-2-methyl-2-(methylsulfonyl)butanamide]?
MIC [1]: 8 µg/mL (≈ 19 µM); MIC [2]: 4 µg/mL (≈ 9.49 µM); MIC [3]: 2 µg/mL (≈ 4.75 µM)

Which MIC [1] does the source give for `CN1CCN(Cc2ccc(C#Cc3cc4n(c3)C(=O)N(CCC(C)(C(=O)NO)S(C)(=O)=O)C4)cc2)CC1` (racemic) [RE6, (RS)—N-hydroxy-2-methyl-4-(6-((4-((4-methylpiperazin-1-yl)methyl)phenyl)ethynyl)-3-oxo-1H-pyrrolo[1,2-c]imidazol-2(3H)-yl)-2-(methylsulfonyl)butanamide] here?
Its MIC is 8 µg/mL (≈ 15.2 µM).

What about the MIC [2] of the same compound?
Its MIC is 2 µg/mL (≈ 3.79 µM).

What about the MIC [3] of the same compound?
Its MIC is 2 µg/mL (≈ 3.79 µM).

For `CC(CCN1Cc2cc(-c3ccc(OCCO)cc3)cn2C1=O)(C(=O)NO)S(C)(=O)=O` (racemic) [RE7, (RS)—N-hydroxy-4-(6-(4-(2-hydroxyethoxy)phenyl)-3-oxo-1H-pyrrolo[1,2-c]imidazol-2(3H)-yl)-2-methyl-2-(methylsulfonyl)butanamide], which MIC [1] is on record?
The MIC was 8 µg/mL (≈ 17.7 µM).

And the MIC [2]?
The MIC was 8 µg/mL (≈ 17.7 µM).

And the MIC [3]?
Its MIC is 4 µg/mL (≈ 8.86 µM).

Which MIC [1] does the source give for `COCCOc1ccc(-c2cc3n(c2)C(=O)N(CCC(C)(C(=O)NO)S(C)(=O)=O)C3)cc1` (racemic) [RE8, (RS)—N-hydroxy-4-(6-(4-(2-methoxyethoxy)phenyl)-3-oxo-1H-pyrrolo[1,2-c]imidazol-2(3H)-yl)-2-methyl-2-(methylsulfonyl)butanamide] here?
Its MIC is 2 µg/mL (≈ 4.3 µM).

And the MIC [2]?
Its MIC is 8 µg/mL (≈ 17.2 µM).

What about the MIC [3] of the same compound?
Its MIC is 2 µg/mL (≈ 4.3 µM).

What does the source list for `Cc1ccc(-c2cc3n(c2)C(=O)N(CCC(C)(C(=O)NO)S(C)(=O)=O)C3)c(F)c1` (racemic) [RE9, (RS)-4-(6-(2-fluoro-4-methylphenyl)-3-oxo-1H-pyrrolo[1,2-c]imidazol-2(3H)-yl)-N-hydroxy-2-methyl-2-(methylsulfonyl)butanamide]?
MIC [1]: 2 µg/mL (≈ 4.72 µM); MIC [2]: 0.5 µg/mL (≈ 1.18 µM); MIC [3]: 0.125 µg/mL (≈ 0.295 µM)

With `CC(C)Oc1ccc(-c2cc3n(c2)C(=O)N(CCC(C)(C(=O)NO)S(C)(=O)=O)C3)cc1F` (racemic) [RE10, (RS)-4-(6-(3-fluoro-4-isopropoxyphenyl)-3-oxo-1H-pyrrolo[1,2-c]imidazol-2(3H)-yl)-N-hydroxy-2-methyl-2-(methylsulfonyl)butanamide] as the compound, how does the MIC [1] read?
The MIC was 8 µg/mL (≈ 17.1 µM).

And the MIC [2]?
Its MIC is 2 µg/mL (≈ 4.28 µM).

And the MIC [3]?
The MIC was 0.25 µg/mL (≈ 0.535 µM).

Which MIC [1] does the source give for `C[C@@](CCN1Cc2cc(C#CC#C[C@@]3(F)C[C@@H]3CO)cn2C1=O)(C(=O)NO)S(C)(=O)=O` (relative stereo) [Example 66, (R)-4-(6-(((1R*,2R*)-1-fluoro-2-(hydroxymethyl)cyclopropyl)buta-1,3-diyn-1-yl)-3-oxo-1H-pyrrolo[1,2-c]imidazol-2(3H)-yl)-N-hydroxy-2-methyl-2-(methylsulfonyl)butanamide] here?
The MIC was 0.5 µg/mL (≈ 1.11 µM).

And the MIC [2]?
Its MIC is 1 µg/mL (≈ 2.21 µM).

And the MIC [3]?
Its MIC is 0.125 µg/mL (≈ 0.277 µM).

With `C[C@@](CCN1Cc2cc(C#CC#C[C@@]3(F)C[C@@H]3CO)cn2C1=O)(C(=O)NO)S(C)(=O)=O` (relative stereo) [Example 67, (R)-4-(6-(((1R*,2R*)-1-fluoro-2-(hydroxymethyl)cyclopropyl)buta-1,3-diyn-1-yl)-3-oxo-1H-pyrrolo[1,2-c]imidazol-2(3H)-yl)-N-hydroxy-2-methyl-2-(methylsulfonyl)butanamide] as the compound, how does the “MIC for K. Pneumoniae A-651” value [1] read?
The value was 0.5 µg/mL.

And the “MIC for P. aeruginosa ATCC27853” value ([2]; quinolone-sensitive strain)?
Its value is 0.5 µg/mL.

And the “MIC for E. coli ATCC25922” value [3]?
Its value is 0.125 µg/mL.

How did the MIC [1] turn out when `C[C@@](CCN1Cc2cc(C#CC#C[C@H]3C[C@]3(F)CO)cn2C1=O)(C(=O)NO)S(C)(=O)=O` (single isomer, unassigned) [Example 78] was run?
The MIC was 0.5 µg/mL (≈ 1.11 µM).

And the MIC [2]?
The MIC was 0.5 µg/mL (≈ 1.11 µM).

What about the MIC [3] of the same compound?
The MIC was 0.25 µg/mL (≈ 0.554 µM).

For `C[C@@](CCN1Cc2cc(C#CC#C[C@@H]3C[C@@]3(F)CO)cn2C1=O)(C(=O)NO)S(C)(=O)=O` (single isomer, unassigned) [Example 79], which MIC [1] is on record?
Its MIC is 0.25 µg/mL (≈ 0.554 µM).

And the MIC [2]?
The MIC was 0.5 µg/mL (≈ 1.11 µM).

And the MIC [3]?
The MIC was 0.25 µg/mL (≈ 0.554 µM).

For `COc1ccc(-c2cc3n(c2)C(=O)N(CC[C@](C)(C(=O)NO)S(C)(=O)=O)C3)c(F)c1` [Example 1, (R)-4-(6-(2-fluoro-4-methoxyphenyl)-3-oxo-1H-pyrrolo[1,2-c]imidazol-2(3H)-yl)-N-hydroxy-2-methyl-2-(methylsulfonyl)butanamide], which MIC [1] is on record?
The MIC was ≤ 0.063 µg/mL.

And the MIC [2]?
The MIC was 1 µg/mL (≈ 2.28 µM).

What about the MIC [3] of the same compound?
The MIC was 0.125 µg/mL (≈ 0.284 µM).

What does the source list for `C[C@@](CCN1Cc2cc(C#Cc3ccc(C4(O)COC4)cc3)cn2C1=O)(C(=O)NO)S(C)(=O)=O` [Example 2, (R)-N-hydroxy-4-(6-((4-(3-hydroxyoxetan-3-yl)phenyl)ethynyl)-3-oxo-1H-pyrrolo[1,2-c]imidazol-2(3H)-yl)-2-methyl-2-(methylsulfonyl)butanamide]?
MIC [1]: 1 µg/mL (≈ 2.05 µM); MIC [2]: 1 µg/mL (≈ 2.05 µM); MIC [3]: 0.5 µg/mL (≈ 1.03 µM)

For `C[C@@](CCN1Cc2cc(C#Cc3ccc(CO)cc3)cn2C1=O)(C(=O)NO)S(C)(=O)=O` [Example 3, (R)-N-hydroxy-4-(6-((4-(hydroxymethyl)phenyl)ethynyl)-3-oxo-1H-pyrrolo[1,2-c]imidazol-2(3H)-yl)-2-methyl-2-(methylsulfonyl)butanamide], which MIC [1] is on record?
Its MIC is 0.5 µg/mL (≈ 1.12 µM).

What about the MIC [2] of the same compound?
Its MIC is 2 µg/mL (≈ 4.49 µM).

And the MIC [3]?
Its MIC is 0.125 µg/mL (≈ 0.281 µM).

Which MIC [1] does the source give for `C[C@@](CCN1Cc2cc(C#CC#CC3(O)COC3)cn2C1=O)(C(=O)NO)S(C)(=O)=O` [Example 4, (R)-N-hydroxy-4-(6-((3-hydroxyoxetan-3-yl)buta-1,3-diyn-1-yl)-3-oxo-1H-pyrrolo[1,2-c]imidazol-2(3H)-yl)-2-methyl-2-(methylsulfonyl)butanamide] here?
Its MIC is 2 µg/mL (≈ 4.59 µM).

What about the MIC [2] of the same compound?
Its MIC is 4 µg/mL (≈ 9.19 µM).

And the MIC [3]?
Its MIC is 2 µg/mL (≈ 4.59 µM).

`C[C@@](CCN1Cc2cc(C#Cc3ccc([C@@H]4C[C@H]4CO)cc3)cn2C1=O)(C(=O)NO)S(C)(=O)=O` [Example 5, (R)-N-hydroxy-4-(6-((4-((1R,2R)-2-(hydroxymethyl)cyclopropyl)phenyl)ethynyl)-3-oxo-1H-pyrrolo[1,2-c]imidazol-2(3H)-yl)-2-methyl-2-(methylsulfonyl)butanamide] was tested. Which MIC [1] did it give?
Its MIC is 0.125 µg/mL (≈ 0.257 µM).

And the MIC [2]?
Its MIC is 0.5 µg/mL (≈ 1.03 µM).

And the MIC [3]?
Its MIC is ≤ 0.063 µg/mL.

Which MIC [1] does the source give for `C[C@@](CCN1Cc2cc(C#Cc3ccc([C@H]4C[C@@H]4CO)cc3)cn2C1=O)(C(=O)NO)S(C)(=O)=O` [Example 6, (R)-N-hydroxy-4-(6-((4-((1S,2S)-2-(hydroxymethyl)cyclopropyl)phenyl)ethynyl)-3-oxo-1H-pyrrolo[1,2-c]imidazol-2(3H)-yl)-2-methyl-2-(methylsulfonyl)butanamide] here?
The MIC was 0.125 µg/mL (≈ 0.257 µM).

What about the MIC [2] of the same compound?
The MIC was 0.5 µg/mL (≈ 1.03 µM).

And the MIC [3]?
Its MIC is 0.031 µg/mL (≈ 0.0638 µM).

What does the source list for `C[C@@](CCN1Cc2cc(C#Cc3ccc(C4(CO)CC4)cc3)cn2C1=O)(C(=O)NO)S(C)(=O)=O` [Example 7, (R)-N-hydroxy-4-(6-((4-(1-(hydroxymethyl)cyclopropyl)phenyl)ethynyl)-3-oxo-1H-pyrrolo[1,2-c]imidazol-2(3H)-yl)-2-methyl-2-(methylsulfonyl)butanamide]?
MIC [1]: 0.25 µg/mL (≈ 0.515 µM); MIC [2]: 0.5 µg/mL (≈ 1.03 µM); MIC [3]: 0.125 µg/mL (≈ 0.257 µM)

What does the source list for `C[C@@](CCN1Cc2cc(C#Cc3ccc(C4(CN)CC4)cc3)cn2C1=O)(C(=O)NO)S(C)(=O)=O.O=CO` [Example 8, (R)-4-(6-((4-(1-(aminomethyl)cyclopropyl)phenyl)ethynyl)-3-oxo-1H-pyrrolo[1,2-c]imidazol-2(3H)-yl)-N-hydroxy-2-methyl-2-(methylsulfonyl)butanamide formate]?
MIC [1]: 8 µg/mL; MIC [2]: 4 µg/mL; MIC [3]: 8 µg/mL

Source: US10106544B2, “1,2-dihydro-3H-pyrrolo[1,2-C]imidazol-3-one derivatives and their use as antibacterial agents” (priority 2014, dated 2018)
